The values that follow come from publication PMC11343938, “Micro-scale screening of genetically modified Fusarium fujikuroi strain extends the apicidin family” (Natural Products and Bioprospecting, 2024).

For one data set, the target named is T1, HDAC6 (Homo sapiens, UniProt Q9UBN7).
T1 construct: purchased BPS Bioscience 50006
T1 sequence (Q9UBN7 1-1215): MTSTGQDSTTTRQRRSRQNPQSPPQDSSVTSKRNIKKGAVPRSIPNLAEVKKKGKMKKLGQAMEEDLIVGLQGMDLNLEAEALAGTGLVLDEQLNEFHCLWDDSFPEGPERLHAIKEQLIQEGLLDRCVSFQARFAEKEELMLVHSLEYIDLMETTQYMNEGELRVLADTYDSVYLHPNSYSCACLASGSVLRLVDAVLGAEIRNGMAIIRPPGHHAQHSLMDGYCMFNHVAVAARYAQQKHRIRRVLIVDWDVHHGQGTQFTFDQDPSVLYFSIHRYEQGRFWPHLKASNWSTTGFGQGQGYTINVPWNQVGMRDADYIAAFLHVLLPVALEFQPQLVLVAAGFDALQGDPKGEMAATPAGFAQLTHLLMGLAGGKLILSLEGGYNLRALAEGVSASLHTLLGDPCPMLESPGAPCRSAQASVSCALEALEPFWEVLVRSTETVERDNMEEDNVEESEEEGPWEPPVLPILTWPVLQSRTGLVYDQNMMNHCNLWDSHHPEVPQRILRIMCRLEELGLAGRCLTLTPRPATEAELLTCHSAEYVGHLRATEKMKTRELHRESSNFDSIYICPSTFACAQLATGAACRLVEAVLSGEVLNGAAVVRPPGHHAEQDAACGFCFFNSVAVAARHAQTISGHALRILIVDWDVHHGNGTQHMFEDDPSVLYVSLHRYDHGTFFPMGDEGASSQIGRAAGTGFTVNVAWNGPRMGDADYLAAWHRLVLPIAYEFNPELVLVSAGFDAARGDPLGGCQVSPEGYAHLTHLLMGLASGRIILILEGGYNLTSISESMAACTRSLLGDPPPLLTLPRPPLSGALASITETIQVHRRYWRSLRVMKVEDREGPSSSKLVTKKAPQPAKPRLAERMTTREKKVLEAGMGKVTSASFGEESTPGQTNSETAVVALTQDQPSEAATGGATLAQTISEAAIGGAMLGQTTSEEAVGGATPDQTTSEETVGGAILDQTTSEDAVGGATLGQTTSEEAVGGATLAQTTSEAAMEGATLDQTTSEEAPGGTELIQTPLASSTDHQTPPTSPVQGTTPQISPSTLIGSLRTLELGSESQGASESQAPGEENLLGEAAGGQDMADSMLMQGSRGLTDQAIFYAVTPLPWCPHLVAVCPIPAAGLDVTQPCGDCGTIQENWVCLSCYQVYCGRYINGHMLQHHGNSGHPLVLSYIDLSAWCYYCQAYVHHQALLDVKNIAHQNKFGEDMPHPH
The experiment in a line: In vitro HDAC inhibition assay (ZMAL substrate), HDAC6. The class given is biochemical. The method, then:
(§1) In vitro inhibitory activity against HDAC1-3 and 6 was determined using our previously published assay protocol. […] Next, the total assay volume (50 µL, max. 1% DMSO) was incubated at 37 °C for 90 min. Subsequently, 50 µL trypsin solution (0.4 mg/mL trypsin in buffer: 50 mM Tris- HCl, pH 8.0, 100 mM NaCl) was added, followed by additional 30 min of incubation at 37 °C. Fluorescence (excitation: 355 nm, emission: 460 nm) was measured using a FLUOstar OPTIMA microplate reader (BMG LABTECH). The IC50 values were determined by generating normalized dose–response curves using the build-in "log(inhibitor) vs. response (three parameters)" equation provided by GraphPad Prism (GraphPad Prism 9.0, San Diego, USA). Compounds were tested in duplicates, reported mean IC50 values, including standard deviation, are calculated from at least two independent experiments.

The subject of another data set is P. falciparum NF54. The experiment in a line: In vitro antiparasitic activity against P. falciparum. The class given is cell-based. Particulars: Plasmodium falciparum, P. falciparum NF54, intraerythrocytic forms, read-out: IC50 inhibition of P. falciparum growth. The method, then: (§2) Furthermore, the whole set of isolated compounds was tested in vitro against T. brucei rhodesiense (bloodstream trypomastigotes) and P. falciparum (intraerythrocytic forms). All assays were performed using validated protocols at the Swiss TPH [34].

Data set [1] can be described thus: in vitro. Particulars: rat.
The target of another data set is T2, HDAC1 (Homo sapiens, UniProt Q13547).
T2 construct: purchased BPS Bioscience 50051
T2 sequence (Q13547 whole entry): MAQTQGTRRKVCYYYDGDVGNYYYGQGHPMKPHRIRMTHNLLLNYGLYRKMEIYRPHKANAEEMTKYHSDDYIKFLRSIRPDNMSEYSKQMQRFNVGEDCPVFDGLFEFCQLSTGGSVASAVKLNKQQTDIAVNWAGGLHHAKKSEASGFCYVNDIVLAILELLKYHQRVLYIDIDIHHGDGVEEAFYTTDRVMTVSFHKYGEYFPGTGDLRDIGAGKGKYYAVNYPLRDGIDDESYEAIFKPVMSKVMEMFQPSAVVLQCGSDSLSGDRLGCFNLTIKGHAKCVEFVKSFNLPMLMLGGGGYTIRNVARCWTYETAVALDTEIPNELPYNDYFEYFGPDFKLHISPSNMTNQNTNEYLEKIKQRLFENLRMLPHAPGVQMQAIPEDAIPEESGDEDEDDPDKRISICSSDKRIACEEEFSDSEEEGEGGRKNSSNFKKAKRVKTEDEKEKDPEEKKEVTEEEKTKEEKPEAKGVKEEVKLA
The data set can be described thus: In vitro HDAC inhibition assay (ZMAL substrate), HDAC1. The class given is biochemical. The method, then:
as §1

For the next data set, the system named is A549 (CCL-185). Particulars: resazurin assay, 24 h incubation, 0.01-100 µM tested.
A further data set concerns the target T3, HDAC3/NcoR2 (Homo sapiens, UniProt O15379).
T3 construct: purchased BPS Bioscience 50003
The experiment in a line: In vitro HDAC inhibition assay (ZMAL substrate), HDAC3. It counts as biochemical. To be noted: mean ± SD of at least two independent experiments. The method, then:
as §1

A further data set deals with HepG2 (HB-8065). Particulars: resazurin assay, 24 h incubation, 0.01-100 µM tested.
A further data set addresses T4, HDAC2 (Homo sapiens, UniProt Q92769).
T4 construct: purchased BPS Bioscience 50052
The data set can be described thus: biochemical. Particulars: mean ± SD of at least two independent experiments. The method, then: as §1, with “USA).” for “USA). Compounds were tested in duplicates, reported mean IC50 values, including standard deviation, are calculated from at least two independent experiments.”

Another data set concerns HepG2. To be noted: human liver carcinoma cell line HepG2; cited from earlier work.
The next data set relates to Plasmodium falciparum. Particulars: cited from earlier work.
Data set [2] deals with Trypanosoma brucei rhodesiense STIB 900. The data set can be described thus: In vitro antiparasitic activity against T. brucei rhodesiense. The class given is cell-based. Particulars: bloodstream trypomastigotes. The method, then: as §2
Data set [3] in a line: in vitro. Particulars: human.
[4] abbreviates: mean ± SD of at least two independent experiments, [b] < 30% inhibition at the stated concentration, read-out: IC50 HDAC6.
The mark [5] stands for this setting: mean ± SD of at least two independent experiments, [b] < 30% inhibition at the stated concentration, read-out: IC50 HDAC1.

Where two headings read alike, the source gives them in different places. Square brackets hold non-standard residues; d marks the D form. Peptide text beside a SMILES is read from it. Trp(1-OMe) = COn1cc(C[C@H](N)C(=O)O)c2ccccc21; Asu = N[C@@H](CCCCCC(=O)O)C(=O)O; dPip = O=C(O)[C@H]1CCCCN1

T4 sequence (Q92769 whole entry): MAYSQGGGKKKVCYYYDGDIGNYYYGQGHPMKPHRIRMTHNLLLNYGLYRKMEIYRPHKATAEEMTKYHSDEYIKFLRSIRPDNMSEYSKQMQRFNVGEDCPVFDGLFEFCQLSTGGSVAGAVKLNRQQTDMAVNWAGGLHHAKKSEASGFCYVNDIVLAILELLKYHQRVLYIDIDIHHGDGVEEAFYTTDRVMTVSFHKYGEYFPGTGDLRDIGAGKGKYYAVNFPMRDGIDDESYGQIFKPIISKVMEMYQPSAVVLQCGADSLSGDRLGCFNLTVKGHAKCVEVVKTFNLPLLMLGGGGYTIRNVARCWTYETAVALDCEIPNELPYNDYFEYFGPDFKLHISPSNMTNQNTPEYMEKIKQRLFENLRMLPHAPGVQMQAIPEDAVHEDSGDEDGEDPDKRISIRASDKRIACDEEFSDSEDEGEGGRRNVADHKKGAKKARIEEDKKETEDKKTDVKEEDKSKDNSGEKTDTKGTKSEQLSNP
T3 sequence (O15379 whole entry): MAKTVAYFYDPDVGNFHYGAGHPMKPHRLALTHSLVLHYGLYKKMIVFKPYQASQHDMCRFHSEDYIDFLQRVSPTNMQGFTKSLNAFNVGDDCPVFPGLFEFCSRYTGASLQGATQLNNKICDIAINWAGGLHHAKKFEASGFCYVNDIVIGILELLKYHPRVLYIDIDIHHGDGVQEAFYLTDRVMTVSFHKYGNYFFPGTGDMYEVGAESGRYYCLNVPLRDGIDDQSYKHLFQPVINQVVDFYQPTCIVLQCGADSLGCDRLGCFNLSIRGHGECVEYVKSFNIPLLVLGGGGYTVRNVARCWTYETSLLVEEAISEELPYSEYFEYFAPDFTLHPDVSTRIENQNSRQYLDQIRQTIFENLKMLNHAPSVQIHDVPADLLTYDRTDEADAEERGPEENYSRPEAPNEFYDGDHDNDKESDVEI
T3 sequence (Q9Y618 395-489 partner limits assumed): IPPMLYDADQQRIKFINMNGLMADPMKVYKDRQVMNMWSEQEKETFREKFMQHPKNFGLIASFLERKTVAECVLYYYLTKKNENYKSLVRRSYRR

In the case of `COn1cc(C[C@@H]2NC(=O)[C@H](CCCCCCO)NC(=O)[C@H]3CCCCN3C(=O)[C@H](Cc3ccccc3)NC2=O)c2ccccc21` [Apicidin K (3), (3S,6S,9S,12R)-3-benzyl-9-(6-hydroxyhexyl)-6-[(1-methoxyindol-3-yl)methyl]-1,4,7,10-tetrazabicyclo[10.4.0]hexadecane-2,5,8,11-tetrone], the IC50 was more than 10 µM on HDAC6 (setting [4]), 1.1 µM in the data set with P. falciparum NF54, 7.2 µM in “in vitro [1]” and more than 3.33 µM at HDAC1 (setting [5]).

For the compound `COn1cc(C[C@@H]2NC(=O)[C@H](CCCCCC(=O)O)NC(=O)[C@H]3CCCN3C(=O)[C@H](Cc3ccccc3)NC2=O)c2ccccc21` [Apicidin J (2), 6-[(3S,6S,9S,12R)-3-benzyl-6-[(1-methoxyindol-3-yl)methyl]-2,5,8,11-tetraoxo-1,4,7,10-tetrazabicyclo[10.3.0]pentadecane-9-yl]hexanoate] (cyclo([Asu][Trp(1-OMe)]F[dP])), the “IC50 cytotoxicity A549” value in the data set with A549 (CCL-185) is on record as “no IC50 could be calculated”. In addition, the IC50 was 0.754 ± 0.112 µM at HDAC3/NcoR2; 9.87 ± 1.4 µM at HDAC6 (setting [4]); 0.633 ± 0.028 µM on HDAC2; 1.1 µM in the data set with P. falciparum NF54; 46.5 µM in “in vitro [1]”; 0.342 ± 0.018 µM on HDAC1 (setting [5]). The “IC50 cytotoxicity HepG2” value in the data set on HepG2 (HB-8065) is “no IC50 could be calculated”.

In the case of `COn1cc(C[C@@H]2NC(=O)[C@H](CCCCCC(=O)O)NC(=O)[C@H]3CCCCN3C(=O)[C@H](Cc3ccccc3)NC2=O)c2ccccc21` [Apicidin F (1), 6-[(3S,6S,9S,12R)-3-benzyl-6-[(1-methoxyindol-3-yl)methyl]-2,5,8,11-tetraoxo-1,4,7,10-tetrazabicyclo[10.4.0]hexadecane-9-yl]hexanoic acid] (cyclo([Asu][Trp(1-OMe)]F[dPip])), the IC50 against HDAC3/NcoR2 was 0.202 ± 0.026 µM; at HDAC6 (setting [4]), 6.38 ± 1.57 µM; at HDAC2, 0.164 ± 0.017 µM; in the data set with P. falciparum NF54, 0.51 µM; in the data set on HepG2, 110 µM; in “in vitro [1]” it was 63.7 µM. Further, the values for the IC50 in the data set with Plasmodium falciparum (read-out: IC50 antiparasitic activity against Plasmodium falciparum) and on HDAC1 (setting [5]) were 0.67 µM and 0.102 ± 0.004 µM, respectively.

Take `COn1cc(C[C@@H]2NC(=O)[C@H](CCCCCCO)NC(=O)[C@H]3CCCN3C(=O)[C@H](Cc3ccccc3)NC2=O)c2ccccc21` [Apicidin L (4), (3S,6S,9S,14aR)-9-benzyl-3-(6-hydroxyhexyl)-6-[(1-methoxy-1H-indol-3-yl)methyl]decahydropyrrolo[1,2-a][1,4,7,10]tetraazacyclododecine-1,4,7,10-tetraone]: in the data set with A549 (CCL-185), the “IC50 cytotoxicity A549” value is recorded as “no IC50 could be calculated”. Besides, the IC50 against HDAC6 was more than 10 µM; in the data set on P. falciparum NF54 it was 2.1 µM; in “in vitro [1]” it was 20 µM; on HDAC1 it was more than 10 µM. Besides, the “IC50 cytotoxicity HepG2” value in the data set with HepG2 (HB-8065) is reported as “no IC50 could be calculated”. Moreover, the “Activity against Trypanosoma brucei rhodesiense STIB 900” value in data set [2] is recorded as “no effect”.

As for `CCC(=O)CCCCC[C@@H]1NC(=O)[C@H]2CCCCN2C(=O)[C@H]([C@@H](C)CC)NC(=O)[C@H](Cc2cn(OC)c3ccccc23)NC1=O` [apicidin (5), apicidin], the IC50 was 2.7 µM in “in vitro [3]”, 1.3 µM in the data set with HepG2 and 0.2 µM in the data set with Plasmodium falciparum (read-out: IC50 in the P. falciparum assay).
